Reference: patent publication US10550079B2, “Artificial self-sufficient cytochrome P450s” (University of Florida Research Foundation, Incorporated, priority 2015, dated 2020)
Entries after “also recorded” stand apart in the source; their conditions may differ.

Tests used:
TxtE-BM3R [1] = molecular target: T1, TxtE-BM3R (UniProt C9ZDC6+P14779); assay: Substrate binding affinity by UV-Vis spectral titration, TxtE-BM3R; design: species or system S. scabies 87.22 / B. megaterium ATCC 14581; conditions: for binding affinity lowered compared with native substrate L-tryptophan: TxtE-BM3R; for Kd: […] enzyme, 25 mM Tris-HCl pH 8.0, for 4-F-DL-tryptophan total concentration of the racemic mixture used; for binding affinity to TxtE-BM3R compared with TxtE: tighter/higher than to TxtE
T1 construct: P450BM3 (CYP102A1) reductase domain BM3R with its Domcut-predicted native linker, from B. megaterium ATCC 14581 (GenBank J04832.1); made in house; host or cells: E. coli BL21 (DE3)-GOLD
Method: (§1) Purified TxtE and its fusion enzymes were spectrally analyzed following a previous protocol (Ding et al. 2008). Briefly, the absorbance spectra (400-600 nm) of TxtE variants (3 M) in Tris-HCl (25 mM, pH 8) buffer were recorded with a Shimadzu UV2700 dual beam UV-Vis spectrophotometer. The ferric heme of enzymes was then saturated with carbon monoxide (Airgas) through bubbling and the spectra of the saturated enzyme solutions were recorded. Immediately, sodium dithionite solution (30 μL, 0.5 M) was added to reduce ferric ion, and reduced spectra were taken subsequently. CO reduced difference spectra of all enzymes were created by subtracting the CO binding spectra from the reduced spectra. Data were further analyzed by GraphPad Prism 4. […] Not more than 10 μl of substrate stock solutions prepared in the above buffer were added to the sample cuvette with an interval of 0.5 μl, and the spectra were recorded from 300 nm to 500 nm each time. The equal volume of buffer was added to the reference cuvette. The changes in absorbance (ΔA) were determined by subtracting the absorbance at ˜420 nm from that at ˜390 nm. Data were then fitted to Michaelis-Menten equation using GraphPad Prism 4.
as §1, with “previous protocol.” for “previous protocol (Ding et al. 2008).”, “(3 μM)” for “(3 M)”, “to the” for “to Michaelis-Menten”, “equation of ΔA=ΔAmax[L]/(Kd+[L])” for “equation”

TxtE [2] = molecular target: T2, TxtE (Streptomyces scabiei, UniProt C9ZDC6); design: inferred from the pET28 vector and Ni-NTA purification) (C); made in house; host or cells: E. coli BL21 (DE3)-GOLD; conditions: previous studies (Barry et al. 2012; Dodani et al. 2014); cited from earlier work
TxtE-BM3R [3] = molecular target: T3, TxtE-BM3R (UniProt C9ZDC6); assay: Substrate binding affinity by UV-Vis spectral titration, TxtE-BM3R; design: species or system S. scabies 87.22 / B. megaterium ATCC 14581; conditions: Kd, […] enzyme, 25 mM Tris-HCl pH 8.0; for 4-F-DL-tryptophan total concentration of the racemic mixture used
T3 construct: P450BM3 (CYP102A1) reductase domain BM3R with its Domcut-predicted native linker, from B. megaterium ATCC 14581 (GenBank J04832.1); made in house; host or cells: E. coli BL21 (DE3)-GOLD
Method: as §1
as §1, with “previous protocol.” for “previous protocol (Ding et al. 2008).”, “(3 μM)” for “(3 M)”, “to the” for “to Michaelis-Menten”, “equation of ΔA=ΔAmax[L]/(Kd+[L])” for “equation”

TxtE-RhFRed [4] = molecular target: T4, TxtE-RhFRed (Streptomyces scabiei, UniProt C9ZDC6); assay: Substrate binding affinity by UV-Vis spectral titration, TxtE-RhFRed; design: species or system S. scabies 87.22; conditions: […] enzyme, 25 mM Tris-HCl pH 8.0
T4 sequence (C9ZDC6 1-406): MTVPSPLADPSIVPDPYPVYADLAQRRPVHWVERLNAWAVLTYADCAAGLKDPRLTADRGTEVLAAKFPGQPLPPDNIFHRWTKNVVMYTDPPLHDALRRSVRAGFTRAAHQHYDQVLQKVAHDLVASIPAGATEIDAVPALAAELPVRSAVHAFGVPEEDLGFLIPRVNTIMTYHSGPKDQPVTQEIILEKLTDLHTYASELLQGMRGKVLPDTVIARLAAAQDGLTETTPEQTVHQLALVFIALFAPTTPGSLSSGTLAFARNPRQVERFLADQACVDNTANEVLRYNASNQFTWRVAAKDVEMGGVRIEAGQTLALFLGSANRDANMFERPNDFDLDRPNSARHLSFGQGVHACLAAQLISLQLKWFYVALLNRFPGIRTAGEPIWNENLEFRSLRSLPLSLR
T4 sequence (Q8KU27 445-773 partner): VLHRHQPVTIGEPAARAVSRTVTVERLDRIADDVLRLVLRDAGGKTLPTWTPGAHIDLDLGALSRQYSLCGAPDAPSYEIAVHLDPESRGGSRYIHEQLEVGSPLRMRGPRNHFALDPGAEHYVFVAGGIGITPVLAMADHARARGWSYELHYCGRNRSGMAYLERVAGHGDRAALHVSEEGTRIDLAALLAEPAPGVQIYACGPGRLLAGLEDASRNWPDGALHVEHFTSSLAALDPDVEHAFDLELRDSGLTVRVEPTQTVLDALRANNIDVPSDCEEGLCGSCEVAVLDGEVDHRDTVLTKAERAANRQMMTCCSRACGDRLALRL
Method: as §1, with “The equal volume of buffer was added to the reference cuvette.” left out, “Data were then fitted to Michaelis-Menten equation using GraphPad Prism 4.” left out
(§2) Purified TxtE and its fusion enzymes were spectrally analyzed following a previous protocol. Briefly, the absorbance spectra (400-600 nm) of TxtE variants (3 μM) in Tris-HCl (25 mM, pH 8) buffer were recorded with a Shimadzu UV2700 dual beam UV-Vis spectrophotometer. […] Data were further analyzed by GraphPad Prism 4. […]

TxtE-RhFRed [5] = molecular target: T4, TxtE-RhFRed; assay: Substrate binding affinity by UV-Vis spectral titration, TxtE-RhFRed*; design: species or system S. scabies 87.22; conditions: […] enzyme, 25 mM Tris-HCl pH 8.0
Method: as §1, with “The equal volume of buffer was added to the reference cuvette.” left out, “Data were then fitted to Michaelis-Menten equation using GraphPad Prism 4.” left out
as §2

TxtE [6] = molecular target: T2, TxtE; assay: Substrate binding affinity by UV-Vis spectral titration, wild type TxtE; design: inferred from the pET28 vector and Ni-NTA purification) (C); made in house; host or cells: E. coli BL21 (DE3)-GOLD; species or system S. scabies 87.22; conditions: […] enzyme, 25 mM Tris-HCl pH 8.0
Method: as §1, with “The equal volume of buffer was added to the reference cuvette.” left out, “Data were then fitted to Michaelis-Menten equation using GraphPad Prism 4.” left out
as §2

TxtE [7] = molecular target: T2, TxtE; assay: Binding affinities of L-tryptophan and substituted tryptophan analogs (FIG. 29A)
Method: Binding affinities and relative nitration conversions for L-tryptophan and several substituted tryptophan analogs were also assessed (FIGS. 29A-29B). […] Furthermore, the nitration activity of TxtE and TxtEBM3R was assessed. In addition to substrate, enzyme reactions typically contained NADP+, an NADPH regeneration system (glucose and glucose dehydrogenase, GDH), spinach ferredoxin (Fer) and ferredoxin reductase (Frd) as redox partners, and 3-[2-hydroxy-1-(l-methylethyl)-2-nitrosohydrazinyl]-1-propanamine (NOC-5) as an NO donor. Reverse-phase UHPLC coupled with a PDA detector and liquid chromatography-mass spectrometry (LC-MS, ESI positive) was employed to detect the nitrated products (FIG. 29B).

[8] = Stability of NO donor NOC-5 at different pH values and temperatures; format: physicochemical
Method: The stability of NO donor NOC-5 was first examined. Its solution was incubated at different pH value (4.5 to 9.5) and temperatures (4 to 65° C.) for 30 min. It was then used as NO donor in the P450 nitration reactions. […] To determine pH effects on the activity of TxtE and TxtEBM3R, enzyme (1.5 μM) reactions were performed in 100 mM Tris-Cl or sodium phosphate with various pH values (4.5 to 9.5) at 20° C., 300 rpm for 30 min. To determine enzyme pH stability, 5 μL of 30 μM enzyme solutions were incubated at buffers with different pH value (4.5 to 9.5). After 15 minutes, other reaction components (95 μL) were mixed to initiate nitration reactions as described above. […] Products were quantitated by HPLC as described above. Conversion rate (%) was calculated by the equation of the area of under the 4-nitro-l-tryptophan peak/the total areas of both substrate and product peaks*100. […]
The stability of NO donor NOC-5 was first examined by incubating it in solutions of different pH values (4.5 to 9.5) and temperatures (4 to 65° C.) for 30 min. […] Products were quantitated by HPLC as described above. Peak area was determined with software installed in the Shimadzu Prominence UHPLC system. Conversion rate (%) was calculated as product (nmol)/product+substrate (nmol)×100 based on the standard curves of Trp and 4-NO2-Trp generated. […]

With `NC(Cc1c[nH]c2cccc(F)c12)C(=O)O` (racemic) [4-F-DL-tryptophan, 4-F-dl-tryptophan] as the molecule, how does the “binding affinity lowered compared with native substrate L-tryptophan” value (TxtE-BM3R [1]) read?
The value was “about 8 times”.

And the Kd (TxtE-BM3R [1])?
The Kd was 189 ± 11.1 µM.

And the “binding affinity to TxtE-BM3R compared with TxtE” value (TxtE-BM3R [1])?
The value was “slightly tightened”.

For `N[C@@H](Cc1c[nH]c2ccc(F)cc12)C(=O)O` [5-F-L-tryptophan, 5-F-l-tryptophan], which “binding affinity lowered compared with native substrate L-tryptophan” value (TxtE-BM3R [1]) is on record?
The value was roughly 3 times.

What about the Kd (TxtE-BM3R [1]) of the same molecule?
The Kd was 84.2 ± 4.37 µM.

What about the Kd (TxtE-BM3R [1]; listed as 5-F-l-tryptophan) of the same molecule?
The Kd was 84.2 ± 4.4 µM.

What about the “binding affinity to TxtE-BM3R compared with TxtE” value (TxtE-BM3R [1]) of the same molecule?
Its value is “slightly tightened”.

Which “spectral changes induced in TxtE solution” value (TxtE [2]) does the source give for `N[C@H](Cc1c[nH]c2ccccc12)C(=O)O` [D-tryptophan] here?
Its value is “unable to induce spectral changes”.

With `N[C@@H](Cc1c[nH]c2ccccc12)C(=O)O` [L-tryptophan] as the molecule, how does the Kd (TxtE-BM3R [3]) read?
The Kd was 20.8 µM.

What about the Kd (TxtE-RhFRed [4]) of the same molecule?
Its Kd is 18.2 µM.

And the Kd (TxtE-RhFRed [5])?
The Kd was 24.3 µM.

And the Kd (TxtE [6])?
The Kd was 24.8 µM.

Which “binding affinity relative to L-tryptophan (FIG. 29A)” value (TxtE [7]) does the source give for `N[C@H](CO)Cc1c[nH]c2ccccc12` [L-tryptophanol] here?
Its value is “significantly weakened interactions”.

Which results are given for `CC(C)N(CCCN)/[N+]([O-])=N/O` [NOC-5, 3-(Aminopropyl)-1-hydroxy-3-isopropyl-2-oxo-1-triazene]?
stability at temperatures higher than 25° C. ([8]; 4 to 65° C., 30 min): decomposed quickly and significantly; stability at different pH values ([8]; pH 4.5 to 9.5, 30 min): stable in all tested pH values; also recorded: stable over a broad pH range; also recorded: stable at all tested pH values

For `O=C(O)C(=O)Cc1c[nH]c2ccccc12` [indole-3-pyruvate], which “binding affinity relative to L-tryptophan (FIG. 29A)” value (TxtE [7]) is on record?
The value was “significantly weakened interactions”.

For `C[C@](N)(Cc1c[nH]c2ccccc12)C(=O)O` [α-Me-Trp], which “binding affinity relative to L-tryptophan (FIG. 29A)” value (TxtE [7]) is on record?
The value was “significantly weakened interactions”.
